According to BindingDB's records for doi:10.1016/j.bmcl.2003.09.094 (Cv Therapeutics, 2003):

Molecular target: Adenosine receptor A1 (hamster)
Assay: Binding affinity for adenosine A1 receptor determined using hamster DDT1 cell membranes with [3H]CCPA as radioligand

Row | Structure (SMILES) | Ki
1 | C=CCNC(=O)OC[C@H]1OC(n2cnc3c(NC4CCOC4)ncnc32)[C@H](O)[C@@H]1O (stereo partly drawn) [Allyl-carbamic acid (2R,3S,4R)-3,4-dihydroxy-5-{6-[(R)-(tetrahydro-furan-3-yl)amino]-purin-9-yl}-tetrahydro-furan-2-ylmethyl ester] | 0.524 µM
2 | C=CCNC(=S)OC[C@H]1OC(n2cnc3c(NC4CCOC4)ncnc32)[C@H](O)[C@@H]1O (stereo partly drawn) [Allyl-thiocarbamic acid (2R,3S,4R)-3,4-dihydroxy-5-{6-[(R)-(tetrahydro-furan-3-yl)amino]-purin-9-yl}-tetrahydro-furan-2-ylmethyl ester] | 0.035 µM
3 | O=C(NCc1ccccc1)OC[C@H]1OC(n2cnc3c(NC4CCOC4)ncnc32)[C@H](O)[C@@H]1O (stereo partly drawn) [Benzyl-carbamic acid (2R,3S,4R)-3,4-dihydroxy-5-{6-[(R)-(tetrahydro-furan-3-yl)amino]-purin-9-yl}-tetrahydro-furan-2-ylmethyl ester] | 1.83 µM
4 | O[C@@H]1[C@@H](COC(=S)NCc2ccccc2)OC(n2cnc3c(NC4CCOC4)ncnc32)[C@@H]1O (stereo partly drawn) [Benzyl-thiocarbamic acid (2R,3S,4R)-3,4-dihydroxy-5-{6-[(R)-(tetrahydro-furan-3-yl)amino]-purin-9-yl}-tetrahydro-furan-2-ylmethyl ester] | 0.012 µM
5 | CCCCNC(=O)OC[C@H]1OC(n2cnc3c(NC4CCOC4)ncnc32)[C@H](O)[C@@H]1O (stereo partly drawn) [Butyl-carbamic acid (2R,3S,4R)-3,4-dihydroxy-5-{6-[(R)-(tetrahydro-furan-3-yl)amino]-purin-9-yl}-tetrahydro-furan-2-ylmethyl ester] | 1.41 µM
6 | CCCCNC(=S)OC[C@H]1OC(n2cnc3c(NC4CCOC4)ncnc32)[C@H](O)[C@@H]1O (stereo partly drawn) [Butyl-thiocarbamic acid (2R,3S,4R)-3,4-dihydroxy-5-{6-[(R)-(tetrahydro-furan-3-yl)amino]-purin-9-yl}-tetrahydro-furan-2-ylmethyl ester] | 0.157 µM
7 | O=C(NC1CCC1)OC[C@H]1OC(n2cnc3c(NC4CCOC4)ncnc32)[C@H](O)[C@@H]1O (stereo partly drawn) [Cyclobutyl-carbamic acid (2R,3S,4R)-3,4-dihydroxy-5-{6-[(R)-(tetrahydro-furan-3-yl)amino]-purin-9-yl}-tetrahydro-furan-2-ylmethyl ester] | 0.306 µM
8 | O[C@@H]1[C@@H](COC(=S)NC2CCC2)OC(n2cnc3c(NC4CCOC4)ncnc32)[C@@H]1O (stereo partly drawn) [Cyclobutyl-thiocarbamic acid (2R,3S,4R)-3,4-dihydroxy-5-{6-[(R)-(tetrahydro-furan-3-yl)amino]-purin-9-yl}-tetrahydro-furan-2-ylmethyl ester] | 0.148 µM
9 | O=C(NC1CCCCC1)OC[C@H]1OC(n2cnc3c(NC4CCOC4)ncnc32)[C@H](O)[C@@H]1O (stereo partly drawn) [Cyclohexyl-carbamic acid (2R,3S,4R)-3,4-dihydroxy-5-{6-[(R)-(tetrahydro-furan-3-yl)amino]-purin-9-yl}-tetrahydro-furan-2-ylmethyl ester] | 0.584 µM
10 | O[C@@H]1[C@@H](COC(=S)NC2CCCCC2)OC(n2cnc3c(NC4CCOC4)ncnc32)[C@@H]1O (stereo partly drawn) [Cyclohexyl-thiocarbamic acid (2R,3S,4R)-3,4-dihydroxy-5-{6-[(R)-(tetrahydro-furan-3-yl)amino]-purin-9-yl}-tetrahydro-furan-2-ylmethyl ester] | 0.253 µM
11 | O=C(NC1CCCC1)OC[C@H]1OC(n2cnc3c(NC4CCOC4)nc(Cl)nc32)[C@H](O)[C@@H]1O (stereo partly drawn) [Cyclopentyl-carbamic acid (2R,3S,4R)-5-{2-chloro-6-[(R)-(tetrahydro-furan-3-yl)amino]-purin-9-yl}-3,4-dihydroxy-tetrahydro-furan-2-ylmethyl ester] | 0.226 µM
12 | O[C@@H]1[C@@H](COC(=S)NC2CCCC2)OC(n2cnc3c(NC4CCOC4)ncnc32)[C@@H]1O (stereo partly drawn) [Cyclopentyl-thiocarbamic acid (2R,3S,4R)-3,4-dihydroxy-5-{6-[(R)-(tetrahydro-furan-3-yl)amino]-purin-9-yl}-tetrahydro-furan-2-ylmethyl ester] | 0.072 µM
13 | O=C(NC1CC1)OC[C@H]1OC(n2cnc3c(NC4CCOC4)ncnc32)[C@H](O)[C@@H]1O (stereo partly drawn) [Cyclopropyl-carbamic acid (2R,3S,4R)-3,4-dihydroxy-5-{6-[(R)-(tetrahydro-furan-3-yl)amino]-purin-9-yl}-tetrahydro-furan-2-ylmethyl ester] | 0.209 µM
14 | O[C@@H]1[C@@H](COC(=S)NC2CC2)OC(n2cnc3c(NC4CCOC4)ncnc32)[C@@H]1O (stereo partly drawn) [Cyclopropyl-thiocarbamic acid (2R,3S,4R)-3,4-dihydroxy-5-{6-[(R)-(tetrahydro-furan-3-yl)amino]-purin-9-yl}-tetrahydro-furan-2-ylmethyl ester] | 0.157 µM
15 | CN(C)C(=O)OC[C@H]1OC(n2cnc3c(NC4CCOC4)ncnc32)[C@H](O)[C@@H]1O (stereo partly drawn) [Dimethyl-carbamic acid (2R,3S,4R)-3,4-dihydroxy-5-{6-[(R)-(tetrahydro-furan-3-yl)amino]-purin-9-yl}-tetrahydro-furan-2-ylmethyl ester] | 0.238 µM
16 | CN(C)C(=S)OC[C@H]1OC(n2cnc3c(NC4CCOC4)ncnc32)[C@H](O)[C@@H]1O (stereo partly drawn) [Dimethyl-thiocarbamic acid (2R,3S,4R)-3,4-dihydroxy-5-{6-[(R)-(tetrahydro-furan-3-yl)amino]-purin-9-yl}-tetrahydro-furan-2-ylmethyl ester] | 0.205 µM
17 | CCNC(=O)OC[C@H]1OC(n2cnc3c(NC4CCOC4)ncnc32)[C@H](O)[C@@H]1O (stereo partly drawn) [Ethyl-carbamic acid (2R,3S,4R)-3,4-dihydroxy-5-{6-[(R)-(tetrahydro-furan-3-yl)amino]-purin-9-yl}-tetrahydro-furan-2-ylmethyl ester] | 0.167 µM
18 | CCNC(=S)OC[C@H]1OC(n2cnc3c(NC4CCOC4)ncnc32)[C@H](O)[C@@H]1O (stereo partly drawn) [Ethyl-thiocarbamic acid (2R,3S,4R)-3,4-dihydroxy-5-{6-[(R)-(tetrahydro-furan-3-yl)amino]-purin-9-yl}-tetrahydro-furan-2-ylmethyl ester] | 0.033 µM
19 | CCNC(=S)OC[C@H]1OC(n2cnc3c(NC4CCOC4)nc(Cl)nc32)[C@H](O)[C@@H]1O (stereo partly drawn) [Ethyl-thiocarbamic acid (2R,3S,4R)-5-{2-chloro-6-[(R)-(tetrahydro-furan-3-yl)amino]-purin-9-yl}-3,4-dihydroxy-tetrahydro-furan-2-ylmethyl ester] | 0.055 µM
20 | CC(C)NC(=O)OC[C@H]1OC(n2cnc3c(NC4CCOC4)ncnc32)[C@H](O)[C@@H]1O (stereo partly drawn) [Isopropyl-carbamic acid (2R,3S,4R)-3,4-dihydroxy-5-{6-[(R)-(tetrahydro-furan-3-yl)amino]-purin-9-yl}-tetrahydro-furan-2-ylmethyl ester] | 0.078 µM
21 | CC(C)NC(=S)OC[C@H]1OC(n2cnc3c(NC4CCOC4)ncnc32)[C@H](O)[C@@H]1O (stereo partly drawn) [Isopropyl-thiocarbamic acid (2R,3S,4R)-3,4-dihydroxy-5-{6-[(R)-(tetrahydro-furan-3-yl)amino]-purin-9-yl}-tetrahydro-furan-2-ylmethyl ester] | 0.036 µM
22 | CNC(=O)OC[C@H]1OC(n2cnc3c(NC4CCOC4)nc(Cl)nc32)[C@H](O)[C@@H]1O (stereo partly drawn) [Methyl-carbamic acid (2R,3S,4R)-5-{2-chloro-6-[(R)-(tetrahydro-furan-3-yl)amino]-purin-9-yl}-3,4-dihydroxy-tetrahydro-furan-2-ylmethyl ester] | 0.096 µM
23 | CNC(=S)OC[C@H]1OC(n2cnc3c(NC4CCOC4)ncnc32)[C@H](O)[C@@H]1O (stereo partly drawn) [Methyl-thiocarbamic acid (2R,3S,4R)-3,4-dihydroxy-5-{6-[(R)-(tetrahydro-furan-3-yl)amino]-purin-9-yl}-tetrahydro-furan-2-ylmethyl ester] | 0.045 µM
24 | CNC(=S)OC[C@H]1OC(n2cnc3c(NC4CCOC4)nc(Cl)nc32)[C@H](O)[C@@H]1O (stereo partly drawn) [Methyl-thiocarbamic acid (2R,3S,4R)-5-{2-chloro-6-[(R)-(tetrahydro-furan-3-yl)amino]-purin-9-yl}-3,4-dihydroxy-tetrahydro-furan-2-ylmethyl ester] | 0.071 µM
25 | CCCNC(=O)OC[C@H]1OC(n2cnc3c(NC4CCOC4)ncnc32)[C@H](O)[C@@H]1O (stereo partly drawn) [Propyl-carbamic acid (2R,3S,4R)-3,4-dihydroxy-5-{6-[(R)-(tetrahydro-furan-3-yl)amino]-purin-9-yl}-tetrahydro-furan-2-ylmethyl ester] | 0.235 µM
26 | CCCNC(=S)OC[C@H]1OC(n2cnc3c(NC4CCOC4)ncnc32)[C@H](O)[C@@H]1O (stereo partly drawn) [Propyl-thiocarbamic acid (2R,3S,4R)-3,4-dihydroxy-5-{6-[(R)-(tetrahydro-furan-3-yl)amino]-purin-9-yl}-tetrahydro-furan-2-ylmethyl ester] | 0.05 µM
